Values quoted from earlier work in patent publication US12201732B2, “Transdermal patches for hangover minimization and/or recocery, and/or sleep improvement” (GameChanger Patch Co., priority 2020, dated 2025).

How the values were obtained:
[1] = recent study
[2] = oral supplementation

| share metabolized by the human stomach in the first pass [2] [%] | Structure (SMILES) | effect on hangover [1] |
| --- | --- | --- |
| – | N[C@@H](CS)C(=O)O [L-cysteine] | mitigate hangover effects |
| ≥ 90 | N[C@@H](CCC(=O)N[C@@H](CS)C(=O)NCC(=O)O)C(=O)O [glutathione] | – |
